Test results as given in PMC10387993, “New pyrimidine-N-β-D-glucosides: synthesis, biological evaluation, and molecular docking investigations” (Turkish Journal of Chemistry, 2023).
Converted amounts (≈) assume the structure as drawn. Read-outs that look alike come from different tables or passages of the source.

Key:
Assay type in all cases: cell-based
C6 (Rat brain glioma) = assay: cells; conditions: Rattus norvegicus; for LC50 (concentration giving 50% net cell loss relative to time zero): read-out: LC50; for GI50 / IC50 / IC (total growth inhibition): C6, MTT; for IC50: read-out: IC50; for IC (total growth inhibition): read-out: TGI
In short: (§1)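 In this MTT proliferation screen, formazan formed over 4 h was read at 560 nm against a 690 nm reference. Each line was tested at least three times, and the IC50 was taken as the concentration inhibiting half of the cells.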

Hep3B = assay: cells; conditions: Homo sapiens; for GI50 / IC50 / IC (total growth inhibition): MTT; for IC50: read-out: IC50; for IC (total growth inhibition): read-out: TGI; for LC50 (concentration causing 50% net cell loss relative to time zero): read-out: LC50
In short: as §1

HeLa = assay: cells; conditions: Homo sapiens; for GI50 / IC50 / IC (total growth inhibition): MTT; for IC50: read-out: IC50; for IC (total growth inhibition): read-out: TGI; for LC50 (concentration causing 50% net cell loss): read-out: LC50
In short: as §1

HT29 = assay: cells; conditions: Homo sapiens; for LC50 (concentration giving 50% net cell loss relative to time zero): HT-29, read-out: LC50; for GI50 / IC50 / IC (total growth inhibition): HT-29, HT29, MTT; for IC50: read-out: IC50; for IC (total growth inhibition): read-out: TGI
In short: as §1

MCF7 = assay: cells; conditions: Homo sapiens; for LC50 (concentration causing 50% net cell loss relative to time zero): MCF7, read-out: LC50; for GI50 / IC50 / IC (total growth inhibition): MCF7, MTT; for IC50: read-out: IC50; for IC (total growth inhibition): read-out: TGI
In short: as §1

A549 = assay: cells; conditions: Homo sapiens; for LC50 (concentration causing 50% net cell loss): A549, read-out: LC50; for GI50 / IC50 / IC (total growth inhibition): A549, MTT; for IC50: read-out: IC50; for IC (total growth inhibition): read-out: TGI
In short: as §1

[1] = LDH cytotoxic activity assay, C6; conditions: rat, C6 glioma cells; for cytotoxicity at 24 h, 25 μg/mL: C6, 25 μg/mL; for cytotoxicity at 24 h, 50 μg/mL: C6, 50 μg/mL; for cytotoxicity at 24 h, 75 μg/mL: C6, 75 μg/mL; for cytotoxicity at 24 h, 100 μg/mL: C6, 100 μg/mL
In short: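 Harvest ~80%-confluent cells with trypsin-EDTA, seed ~5 × 10^3 per well in DMEM or RPMI 1640 containing 10% FBS, then add compound at 25–100 μg/mL (four levels) for 24 h at 37 °C. Finish by reading LDH activity at 492–630 nm.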

S. gordonii NCTC 7870 = assay: Microdilution MIC assay; conditions: Streptococcus gordonii, NCTC7870; S. gordonii NCTC 7870, 24 h at 35 °C
In short: (§2)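 Microwell dilution; 24 h, 35 °C; visual read; MIC = lowest conc. without turbidity.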

[2] = test system: S. aureus MSSA ATCC 29213; assay: Microdilution MIC assay; conditions: S. aureus MSSA ATCC 29213, 24 h at 35 °C
In short: as §2

E. coli ATCC 25922 = assay: Microdilution MIC assay; conditions: Escherichia coli, ATCC25922; E. coli ATCC 25922, 24 h at 35 °C
In short: as §2

[3] = test system: P. aeruginosa AGME ATCC 27853; assay: Microdilution MIC assay; conditions: Pseudomonas aeruginosa, ATCC27853; P. aeruginosa AGME ATCC 27853, 24 h at 35 °C
In short: as §2

[4] = test system: S. aureus MRSA ATCC 46300; assay: Microdilution MIC assay; conditions: Staphylococcus aureus; S. aureus MRSA ATCC 46300, 24 h at 35 °C; read-out: MIC
In short: as §2

[5] = test system: E. faecalis VRE ATCC 19433; assay: Microdilution MIC assay; conditions: Enterococcus faecalis; E. faecalis VRE ATCC 19433, 24 h at 35 °C
In short: as §2

E. faecalis ATCC 29212 = assay: Microdilution MIC assay; conditions: E. faecalis ATCC 29212, 24 h at 35 °C
In short: as §2

[6] = test system: A. actinomycetemcomitans ATCC 33384; assay: Microdilution MIC assay; conditions: Aggregatibacter actinomycetemcomitans, ATCC33384; A. actinomycetemcomitans ATCC 33384, 24 h at 35 °C
In short: as §2

E. coli ESBL ATCC 35218 = assay: Microdilution MIC assay; conditions: Escherichia coli, ATCC35218; E. coli ESBL ATCC 35218, 24 h at 35 °C
In short: as §2

S. mutans ATCC 35668 = assay: Microdilution MIC assay; conditions: S. mutans ATCC 35668, 24 h at 35 °C
In short: as §2

[7] = Staphylococcus aureus, 24 h, read-out: MIC
[8] = Enterococcus faecalis, ATCC29212, 24 h, read-out: MIC
[9] = Streptococcus mutans, ATCC35668, 24 h, read-out: MIC

CC(=O)OC[C@H]1O[C@@H](Nc2nc(-c3cccnc3)cc(-c3cccc(C)c3)n2)[C@H](OC(C)=O)[C@@H](OC(C)=O)[C@@H]1OC(C)=O [Compound 14, 2,3,4,6-tetra-O-acetyl-N-[4-(3-methylphenyl)-6-pyridin-3-ylpyrimidin-2-yl]-β-D-glucopyranosylamine]
LC50 (concentration giving 50% net cell loss relative to time zero) (C6 (Rat brain glioma)): > 500 µg/mL
GI50 (C6 (Rat brain glioma)): > 500 µg/mL
IC50 (C6 (Rat brain glioma)): > 500 µg/mL
IC (total growth inhibition) (C6 (Rat brain glioma)): > 500 µg/mL
GI50 (Hep3B): 4.9 µg/mL (≈ 8.27 µM)
IC50 (Hep3B): > 500 µg/mL
IC (total growth inhibition) (Hep3B): > 500 µg/mL
LC50 (concentration causing 50% net cell loss relative to time zero) (Hep3B): > 500 µg/mL
GI50 (HeLa): > 500 µg/mL
IC50 (HeLa): > 500 µg/mL
IC (total growth inhibition) (HeLa): > 500 µg/mL
LC50 (concentration causing 50% net cell loss) (HeLa): > 500 µg/mL
LC50 (concentration giving 50% net cell loss relative to time zero) (HT29): > 500 µg/mL
GI50 (HT29): 2.28 µg/mL (≈ 3.85 µM)
IC50 (HT29): > 500 µg/mL
IC (total growth inhibition) (HT29): > 500 µg/mL
LC50 (concentration causing 50% net cell loss relative to time zero) (MCF7): > 500 µg/mL
GI50 (MCF7): 1.95 µg/mL (≈ 3.29 µM)
IC50 (MCF7): > 500 µg/mL
IC (total growth inhibition) (MCF7): > 500 µg/mL
LC50 (concentration causing 50% net cell loss) (A549): > 500 µg/mL
GI50 (A549): 430 µg/mL (≈ 726 µM)
IC50 (A549): > 500 µg/mL
IC (total growth inhibition) (A549): > 500 µg/mL
cytotoxicity at 24 h, 25 μg/mL [1]: 18.4%
cytotoxicity at 24 h, 50 μg/mL [1]: 35.3%
cytotoxicity at 24 h, 75 μg/mL [1]: 70.2%
cytotoxicity at 24 h, 100 μg/mL [1]: 86.7%
MIC (S. gordonii NCTC 7870): > 1000 µg/mL
MIC [2]: 125 µg/mL (≈ 211 µM)
MIC [2, 7]: 62.5 to 125 µg/mL (≈ 105 to 211 µM)
MIC (E. coli ATCC 25922): > 1000 µg/mL
MIC [3]: > 1000 µg/mL
MIC [4]: 250 µg/mL (≈ 422 µM)
MIC [5]: 1000 µg/mL (≈ 1690 µM)
MIC (E. faecalis ATCC 29212): 31.25 µg/mL (≈ 52.7 µM)
MIC (E. faecalis ATCC 29212; [8]): 31.2 to 125 µg/mL (≈ 52.7 to 211 µM)
MIC [6]: > 1000 µg/mL
MIC (E. coli ESBL ATCC 35218): > 1000 µg/mL
MIC (S. mutans ATCC 35668): 62.5 µg/mL (≈ 105 µM)
MIC (S. mutans ATCC 35668; [9]): 62.5 to 125 µg/mL (≈ 105 to 211 µM)

CC(=O)OC[C@H]1O[C@@H](Nc2nc(-c3ccncc3)cc(-c3cccc(C)c3)n2)[C@H](OC(C)=O)[C@@H](OC(C)=O)[C@@H]1OC(C)=O [Compound 15, 2,3,4,6-tetra-O-acetyl-N-[4-(3-methylphenyl)-6-pyridin-4-ylpyrimidin-2-yl]-β-D-glucopyranosylamine]
LC50 (concentration giving 50% net cell loss relative to time zero) (C6 (Rat brain glioma)): 71.2 µg/mL (≈ 120 µM)
GI50 (C6 (Rat brain glioma)): 2.21 µg/mL (≈ 3.73 µM)
IC50 (C6 (Rat brain glioma)): 11.2 µg/mL (≈ 19 µM)
IC (total growth inhibition) (C6 (Rat brain glioma)): 6.3 µg/mL
GI50 (Hep3B): 5.55 µg/mL (≈ 9.37 µM)
IC50 (Hep3B): > 500 µg/mL
IC (total growth inhibition) (Hep3B): > 500 µg/mL
LC50 (concentration causing 50% net cell loss relative to time zero) (Hep3B): > 500 µg/mL
GI50 (HeLa): > 500 µg/mL
IC50 (HeLa): > 500 µg/mL
IC (total growth inhibition) (HeLa): > 500 µg/mL
LC50 (concentration causing 50% net cell loss) (HeLa): > 500 µg/mL
LC50 (concentration giving 50% net cell loss relative to time zero) (HT29): > 500 µg/mL
GI50 (HT29): 5 µg/mL (≈ 8.44 µM)
IC50 (HT29): > 500 µg/mL
IC (total growth inhibition) (HT29): > 500 µg/mL
LC50 (concentration causing 50% net cell loss relative to time zero) (MCF7): > 500 µg/mL
GI50 (MCF7): 4.1 µg/mL (≈ 6.92 µM)
IC50 (MCF7): > 500 µg/mL
IC (total growth inhibition) (MCF7): > 500 µg/mL
LC50 (concentration causing 50% net cell loss) (A549): > 500 µg/mL
GI50 (A549): > 500 µg/mL
IC50 (A549): > 500 µg/mL
IC (total growth inhibition) (A549): > 500 µg/mL
cytotoxicity at 24 h, 25 μg/mL [1]: 20.4%
cytotoxicity at 24 h, 50 μg/mL [1]: 55%
cytotoxicity at 24 h, 75 μg/mL [1]: 77.1%
cytotoxicity at 24 h, 100 μg/mL [1]: 83.3%
MIC (S. gordonii NCTC 7870): > 1000 µg/mL
MIC [2, 7]: 250 µg/mL (≈ 422 µM)
MIC (E. coli ATCC 25922): > 1000 µg/mL
MIC [3]: > 1000 µg/mL
MIC [4]: 250 µg/mL (≈ 422 µM)
MIC [5]: 1000 µg/mL (≈ 1690 µM)
MIC (E. faecalis ATCC 29212): 31.25 µg/mL (≈ 52.7 µM)
MIC (E. faecalis ATCC 29212; [8]): 31.2 to 125 µg/mL (≈ 52.7 to 211 µM)
MIC [6]: > 1000 µg/mL
MIC (E. coli ESBL ATCC 35218): > 1000 µg/mL
MIC (S. mutans ATCC 35668): 62.5 µg/mL (≈ 105 µM)
MIC (S. mutans ATCC 35668; [9]): 62.5 to 125 µg/mL (≈ 105 to 211 µM)
